What was measured:
EP4 [1] = molecular target: T1, EP4 (Homo sapiens (Human), UniProt P35408); test: CRE-PLAP reporter assay; format: cell-based; conditions: SE302 (HEK/293 clone) cells with endogenous EP4, stimulated with 3 ng/mL PGE2 overnight
Protocol: Cells were maintained in DMEM/F12 (50:50) (MediaTech) supplemented with 10% FBS (Tissue Culture Biologicals) plus penicillin/streptomycin. When used for assays, cells were plated in a 96-well plate at 2×10^4 cells/100 μL/well in serum-free assay medium (DMEM/F12 supplemented with 0.1% BSA plus penicillin/streptomycin) and incubated for 4-6 h.
Exemplary compounds of the present invention were assayed according to the methods set forth above in the CRE-PLAP reporter assay described above.

EP4 [2] = molecular target: T1, EP4; test: Radioligand EP4 receptor binding assay; conditions: Chem-1 cell membranes overexpressing human EP4, [3H]-PGE2 displacement
Protocol: The radioligand EP4 binding assay was performed using ChemiScreen recombinant human EP4 receptor membrane preparations from Millipore, according to manufacturer's instructions. Briefly, membranes prepared from Chem-1 cells overexpressing human EP4 cDNA (Millipore) were mixed with 1.8 nmol.L^−1 [^3H]-PGE2 and 5 μmol.L^−1 unlabelled PGE2 in the presence or absence of various concentrations of testing compounds in binding buffer (50 mmol.L^−1 HEPES, pH 7.4, 5 mmol.L^−1 MgCl2, 1 mmol.L^−1 CaCl2, 0.2% BSA) in a nonbinding 96-well plate, and incubated for 1-2 h at room temperature. Prior to filtration, a GF/C 96-well filter plate was coated with 0.33% polyethyleneimine for 30 min, then washed with 50 mmol.L^−1 HEPES, pH 7.4, 0.5% BSA. Binding reactions were transferred to the filter plate, and washed 3 times with Wash Buffer (1 mL per well per wash). The plate was dried and radioactivity counted.

T1 sequence (P35408 whole entry): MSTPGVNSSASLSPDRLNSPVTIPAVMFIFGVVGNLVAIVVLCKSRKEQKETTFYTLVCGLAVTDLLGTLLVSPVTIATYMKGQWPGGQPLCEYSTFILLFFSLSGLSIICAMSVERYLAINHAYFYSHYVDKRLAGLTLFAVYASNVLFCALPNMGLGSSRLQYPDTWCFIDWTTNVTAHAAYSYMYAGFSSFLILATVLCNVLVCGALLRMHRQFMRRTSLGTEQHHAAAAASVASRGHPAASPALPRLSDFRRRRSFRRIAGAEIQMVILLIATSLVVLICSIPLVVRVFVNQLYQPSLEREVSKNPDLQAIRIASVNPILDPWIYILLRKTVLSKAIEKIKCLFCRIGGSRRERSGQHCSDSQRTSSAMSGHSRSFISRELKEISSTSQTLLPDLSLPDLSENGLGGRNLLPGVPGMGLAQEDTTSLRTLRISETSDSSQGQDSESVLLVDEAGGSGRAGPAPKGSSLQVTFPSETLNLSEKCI

Q: Which IC50 (EP4 [1]) does the source give for `Cc1nn(C)c(Oc2ccc(Cl)cc2)c1C(=O)N[C@@H](C)c1ccc(C(=O)O)cc1` [ER-880663-00] here?
A: 619 nM

Q: For `C[C@H](NC(=O)c1c(C(F)(F)F)nn(C)c1Oc1cccc(Cl)c1)c1ccc(C(=O)O)cc1` [ER-885289-00], which IC50 (EP4 [1]) is on record?
A: 45 nM

Q: Which results are given for `Cc1nn(C)c(Oc2cccc(C(F)(F)F)c2)c1C(=O)N[C@@H](C)c1ccc(C(=O)O)cc1` [ER-885290-00]?
A: IC50 (EP4 [1]): 18 nM; Ki (EP4 [2]): 14 nM

Q: `C[C@H](NC(=O)c1c(C(F)(F)F)nn(C)c1Oc1cccc(C(F)(F)F)c1)c1ccc(C(=O)O)cc1` [ER-885291-00] was tested. Which IC50 (EP4 [1]) did it give?
A: 27 nM

Q: For `Cc1nn(C)c(Oc2ccc(F)cc2)c1C(=O)N[C@@H](C)c1ccc(C(=O)O)cc1` [ER-885302-00], which IC50 (EP4 [1]) is on record?
A: 261 nM

Q: How did the IC50 (EP4 [1]) turn out when `Cc1nn(C)c(Oc2ccc(C(F)(F)F)cc2)c1C(=O)N[C@@H](C)c1ccc(C(=O)O)cc1` [ER-885311-00] was run?
A: 273 nM

Q: `Cc1nn(C)c(Oc2ccc(Cl)c(Cl)c2)c1C(=O)N[C@@H](C)c1ccc(C(=O)O)cc1` [ER-885716-00] was tested. Which IC50 (EP4 [1]) did it give?
A: 92 nM

Q: How did the IC50 (EP4 [1]) turn out when `Cc1nn(C)c(Oc2cccc(F)c2)c1C(=O)N[C@@H](C)c1ccc(C(=O)O)cc1` [ER-885717-00] was run?
A: 974 nM

Q: Which IC50 (EP4 [1]) does the source give for `Cc1nn(C)c(Oc2ccc(F)c(F)c2)c1C(=O)N[C@@H](C)c1ccc(C(=O)O)cc1` [ER-885718-00] here?
A: 467 nM

Q: Which IC50 (EP4 [1]) does the source give for `Cc1nn(C)c(Oc2cccc(F)c2F)c1C(=O)N[C@@H](C)c1ccc(C(=O)O)cc1` [ER-885719-00] here?
A: 2670 nM

Q: Which IC50 (EP4 [1]) does the source give for `Cc1nn(C)c(Oc2cc(F)ccc2F)c1C(=O)N[C@@H](C)c1ccc(C(=O)O)cc1` [ER-885720-00] here?
A: 2220 nM

Q: For `Cc1nn(C)c(Oc2cc(Cl)cc(Cl)c2)c1C(=O)N[C@@H](C)c1ccc(C(=O)O)cc1` [ER-885721-00], which IC50 (EP4 [1]) is on record?
A: 846 nM

Q: With `Cc1nn(C)c(Oc2cccc(C(F)(F)F)c2)c1C(=O)NC1(c2ccc(C(=O)O)cc2)CC1` [ER-885740-00] as the molecule, how does the IC50 (EP4 [1]) read?
A: 12 nM

Q: What about the Ki (EP4 [2]) of the same molecule?
A: 43 nM

Q: For `Cn1nc(C(F)(F)F)c(C(=O)NC2(c3ccc(C(=O)O)cc3)CC2)c1Oc1cccc(C(F)(F)F)c1` [ER-885741-00], which IC50 (EP4 [1]) is on record?
A: 13 nM

Q: What about the Ki (EP4 [2]) of the same molecule?
A: 16 nM

Q: How did the IC50 (EP4 [1]) turn out when `Cn1nc(C(F)(F)F)c(C(=O)NC2(c3ccc(C(=O)O)cc3)CC2)c1Oc1cccc(Cl)c1` [ER-885743-00] was run?
A: 38 nM

Q: `Cc1nn(C)c(Oc2cccc(Cl)c2)c1C(=O)N[C@@H](C)c1ccc(C(=O)O)cc1` [ER-885744-00] was tested. Which IC50 (EP4 [1]) did it give?
A: 168 nM

Q: For `Cc1ccc(Oc2c(C(=O)N[C@@H](C)c3ccc(C(=O)O)cc3)c(C)nn2C)cc1` [ER-885749-00], which IC50 (EP4 [1]) is on record?
A: 451 nM

Q: Which IC50 (EP4 [1]) does the source give for `Cc1nn(C)c(Oc2cccc(Cl)c2Cl)c1C(=O)N[C@@H](C)c1ccc(C(=O)O)cc1` [ER-886022-00] here?
A: 719 nM

Q: `Cc1nn(C)c(Oc2cc(F)cc(Cl)c2)c1C(=O)N[C@@H](C)c1ccc(C(=O)O)cc1` [ER-886024-00] was tested. Which IC50 (EP4 [1]) did it give?
A: 637 nM

Q: How did the IC50 (EP4 [1]) turn out when `Cc1nn(C)c(Oc2cc(F)ccc2Cl)c1C(=O)N[C@@H](C)c1ccc(C(=O)O)cc1` [ER-886025-00] was run?
A: 4910 nM

Q: For `Cc1cccc(Oc2c(C(=O)N[C@@H](C)c3ccc(C(=O)O)cc3)c(C)nn2C)c1` [ER-886032-00], which IC50 (EP4 [1]) is on record?
A: 356 nM

Q: `Cc1cc(C)cc(Oc2c(C(=O)N[C@@H](C)c3ccc(C(=O)O)cc3)c(C)nn2C)c1` [ER-886033-00] was tested. Which IC50 (EP4 [1]) did it give?
A: 2120 nM

Q: With `COc1cc(OC)cc(Oc2c(C(=O)N[C@@H](C)c3ccc(C(=O)O)cc3)c(C)nn2C)c1` [ER-886035-00] as the molecule, how does the IC50 (EP4 [1]) read?
A: 3660 nM

Q: For `C[C@H](NC(=O)c1c(C(F)F)nn(C)c1Oc1cccc(Cl)c1)c1ccc(C(=O)O)cc1` [ER-886045-00], which IC50 (EP4 [1]) is on record?
A: 18 nM

Q: And the Ki (EP4 [2])?
A: 50 nM

Q: For `Cc1nn(C)c(Oc2cccc(OC(F)(F)F)c2)c1C(=O)N[C@@H](C)c1ccc(C(=O)O)cc1` [ER-886061-00], which IC50 (EP4 [1]) is on record?
A: 89 nM

Q: Which IC50 (EP4 [1]) does the source give for `C[C@H](NC(=O)c1c(C(F)(F)F)nn(C)c1Oc1cccc(F)c1)c1ccc(C(=O)O)cc1` [ER-886072-00] here?
A: 132 nM

Q: How did the IC50 (EP4 [1]) turn out when `C[C@H](NC(=O)c1c(C(F)(F)F)nn(C)c1Oc1ccc(F)c(F)c1)c1ccc(C(=O)O)cc1` [ER-886073-00] was run?
A: 109 nM

Q: Which results are given for `C[C@H](NC(=O)c1c(C(F)(F)F)nn(C)c1Oc1ccc(Cl)c(Cl)c1)c1ccc(C(=O)O)cc1` [ER-886074-00]?
A: IC50 (EP4 [1]): 10 nM; Ki (EP4 [2]): 13 nM

Q: `Cc1nn(C)c(Oc2cccc(Cl)c2)c1C(=O)NC1(c2ccc(C(=O)O)cc2)CC1` [ER-886077-00] was tested. Which IC50 (EP4 [1]) did it give?
A: 85 nM

Q: `Cn1nc(C(F)F)c(C(=O)NC2(c3ccc(C(=O)O)cc3)CC2)c1Oc1cccc(C(F)(F)F)c1` [ER-886078-00] was tested. Which IC50 (EP4 [1]) did it give?
A: 9 nM

Q: What about the Ki (EP4 [2]) of the same molecule?
A: 8 nM

Q: With `Cc1nn(C)c(Oc2cccc(OC(F)F)c2)c1C(=O)N[C@@H](C)c1ccc(C(=O)O)cc1` [ER-886080-00] as the molecule, how does the IC50 (EP4 [1]) read?
A: 58 nM

Q: With `C[C@H](NC(=O)c1c(C(F)(F)F)nn(C)c1Oc1cccc(OC(F)F)c1)c1ccc(C(=O)O)cc1` [ER-886082-00] as the molecule, how does the IC50 (EP4 [1]) read?
A: 88 nM

Q: How did the IC50 (EP4 [1]) turn out when `C[C@H](NC(=O)c1c(C(F)F)nn(C)c1Oc1cccc(OC(F)F)c1)c1ccc(C(=O)O)cc1` [ER-886090-00] was run?
A: 17 nM

Q: What about the Ki (EP4 [2]) of the same molecule?
A: 10 nM

Q: For `C[C@H](NC(=O)c1c(C(F)F)nn(C)c1Oc1cccc(C(F)F)c1)c1ccc(C(=O)O)cc1` [ER-887480-00], which IC50 (EP4 [1]) is on record?
A: 51 nM

Q: And the Ki (EP4 [2])?
A: 26 nM

Q: With `Cc1nn(C)c(Oc2cccc(C(F)F)c2)c1C(=O)N[C@@H](C)c1ccc(C(=O)O)cc1` [ER-887495-00] as the molecule, how does the IC50 (EP4 [1]) read?
A: 219 nM

Q: With `C[C@H](NC(=O)c1c(C(F)(F)F)nn(C)c1Oc1cccc(C(F)F)c1)c1ccc(C(=O)O)cc1` [ER-887995-00] as the molecule, how does the IC50 (EP4 [1]) read?
A: 187 nM

Q: For `C[C@H](NC(=O)c1c(C(F)F)nn(C)c1Oc1ccc(Cl)c(Cl)c1)c1ccc(C(=O)O)cc1` [ER-888024-00], which IC50 (EP4 [1]) is on record?
A: 31 nM

Q: `Cn1nc(C(F)F)c(C(=O)NC2(c3ccc(C(=O)O)cc3)CC2)c1Oc1ccc(Cl)c(Cl)c1` [ER-888348-00] was tested. Which IC50 (EP4 [1]) did it give?
A: 17 nM

Q: `Cn1nc(C(F)F)c(C(=O)NC2(c3ccc(C(=O)O)cc3)CC2)c1Oc1cccc(Cl)c1` [ER-888355-00] was tested. Which IC50 (EP4 [1]) did it give?
A: 157 nM

Q: For `Cn1nc(C(F)(F)F)c(C(=O)NC2(c3ccc(C(=O)O)cc3)CC2)c1Oc1ccc(Cl)c(Cl)c1` [ER-888363-00], which IC50 (EP4 [1]) is on record?
A: 8 nM

Q: How did the IC50 (EP4 [1]) turn out when `Cn1nc(C(F)(F)F)c(C(=O)NC2(c3ccc(C(=O)O)cc3)CC2)c1Oc1ccc(C(F)(F)F)cc1` [ER-888364-00] was run?
A: 12 nM

Q: With `C[C@H](NC(=O)c1c(C(F)(F)F)nn(C)c1Oc1ccc(C(F)(F)F)cc1)c1ccc(C(=O)O)cc1` [ER-888365-00] as the molecule, how does the IC50 (EP4 [1]) read?
A: 28 nM

Q: With `Cn1nc(C(F)F)c(C(=O)NC2(c3ccc(C(=O)O)cc3)CC2)c1Oc1ccc(C(F)(F)F)cc1` [ER-888366-00] as the molecule, how does the IC50 (EP4 [1]) read?
A: 15 nM

Q: `C[C@H](NC(=O)c1c(C(F)F)nn(C)c1Oc1ccc(C(F)(F)F)cc1)c1ccc(C(=O)O)cc1` [ER-888367-00] was tested. Which IC50 (EP4 [1]) did it give?
A: 23 nM

Q: For `Cn1nc(C(F)(F)F)c(C(=O)NC2(c3ccc(C(=O)O)cc3)CC2)c1Oc1ccc(Cl)cc1` [ER-888368-00], which IC50 (EP4 [1]) is on record?
A: 18 nM

Q: Which IC50 (EP4 [1]) does the source give for `C[C@H](NC(=O)c1c(C(F)(F)F)nn(C)c1Oc1ccc(Cl)cc1)c1ccc(C(=O)O)cc1` [ER-888369-00] here?
A: 89 nM

Q: Which IC50 (EP4 [1]) does the source give for `Cn1nc(C(F)F)c(C(=O)NC2(c3ccc(C(=O)O)cc3)CC2)c1Oc1ccc(Cl)cc1` [ER-888370-00] here?
A: 35 nM

Q: For `C[C@H](NC(=O)c1c(C(F)F)nn(C)c1Oc1ccc(Cl)cc1)c1ccc(C(=O)O)cc1` [ER-888371-00], which IC50 (EP4 [1]) is on record?
A: 89 nM
